Data taken from US20090137549A1, “Novel compounds useful for the treatment of degenerative & inflamatory diseases” (priority 2006, published 2009).

Target: PDE1A (Homo sapiens, UniProt P54750)
Experiment: PDE1A dose response, Cyclic Nucleotide Phosphodiesterase Assay Kit from Biomol (colorimetric)
Format: biochemical
Conditions: purified PDE1A enzyme, 100 μM cAMP
Summary of the method: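 Purified PDE1A hydrolysed 100 μM cAMP with 5′-nucleotidase in Tris 20 mM pH 7.4 with calmodulin, Ca2+, Mg2+, 45 min at 37° C. Released phosphate read by malachite-green absorbance at 615 nm. Duplicate 8-point 1/3 dilutions from 20 μM, 1% DMSO; 10 μM vardenafil defined 100% inhibition.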

SMILES | IC50 [nM]
CC(C)(C)n1ncc2c(=O)[nH]c(C3CN(c4nc5ccc(Br)cc5[nH]4)C3)nc21 [Example 126, 6-(1-(6-bromo-1H-benzo[d]imidazol-2-yl)azetidin-3-yl)-1-tert-butyl-1H-pyrazolo[3,4-d]pyrimidin-4(5H)-one] | 1 to 100
CC(C)(C)n1ncc2c(=O)[nH]c(C3CN(c4nc5cc(C(F)(F)F)ccc5[nH]4)C3)nc21 [Example 127, 1-tert-butyl-6-(1-(5-(trifluoromethyl)-1H-benzo[d]imidazol-2-yl)azetidin-3-yl)-1H-pyrazolo[3,4-d]pyrimidin-4(5H)-one] | 1 to 100
CC(C)(C)n1ncc2c(=O)[nH]c(C3CN(c4nc5ccccc5[nH]4)C3)nc21 [Example 128, 6-(1-(1H-benzo[d]imidazol-2-yl)azetidin-3-yl)-1-tert-butyl-1H-pyrazolo[3,4-d]pyrimidin-4(5H)-one] | 1 to 100
O=c1[nH]c(C2CN(c3ncc(CN4CCOCC4)s3)C2)nc2c1cnn2C1CCCCC1 [Example 134, 1-cyclohexyl-6-(1-(5-(morpholinomethyl)thiazol-2-yl)azetidin-3-yl)-1H-pyrazolo[3,4-d]pyrimidin-4(5H)-one] | 101 to 500
O=c1[nH]c(C2CN(c3ncc(CN4CCCCC4)s3)C2)nc2c1cnn2C1CCCCC1 [Example 135, 1-cyclohexyl-6-(1-(5-(piperidin-1-ylmethyl)thiazol-2-yl)azetidin-3-yl)-1H-pyrazolo[3,4-d]pyrimidin-4(5H)-one] | 101 to 500
CN1CCN(Cc2cnc(N3CC(c4nc5c(cnn5C5CCCCC5)c(=O)[nH]4)C3)s2)CC1 [Example 137, 1-cyclohexyl-6-(1-(5-((4-methylpiperazin-1-yl)methyl)thiazol-2-yl)azetidin-3-yl)-1H-pyrazolo[3,4-d]pyrimidin-4(5H)-one] | 101 to 500
O=c1[nH]c(C2CN(c3ncc(CN4CCCCCC4)s3)C2)nc2c1cnn2C1CCCCC1 [Example 138, 6-(1-(5-(azepan-1-ylmethyl)thiazol-2-yl)azetidin-3-yl)-1-cyclohexyl-1H-pyrazolo[3,4-d]pyrimidin-4(5H)-one] | 101 to 500
Cc1nn(C(C)(C)C)c2nc(C3CN(c4nnnn4-c4ccccc4)C3)[nH]c(=O)c12 [Example 139, 1-tert-butyl-3-methyl-6-(1-(1-phenyl-1H-tetrazol-5-yl)azetidin-3-yl)-1H-pyrazolo[3,4-d]pyrimidin-4(5H)-one] | 101 to 500
CC(C)(C)n1ncc2c(=O)[nH]c(C3CN(c4nccs4)C3)nc21 [Example 141, 1-tert-butyl-6-(1-(thiazol-2-yl)azetidin-3-yl)-1H-pyrazolo[3,4-d]pyrimidin-4(5H)-one] | 501 to 1000
O=c1[nH]c(C2CN(c3nc(CN4CCOCC4)cs3)C2)nc2c1cnn2C1CCCCC1 [Example 142, 1-cyclohexyl-6-(1-(4-(morpholinomethyl)thiazol-2-yl)azetidin-3-yl)-1H-pyrazolo[3,4-d]pyrimidin-4(5H)-one] | 101 to 500
CC(C)N1CCN(Cc2csc(N3CC(c4nc5c(cnn5C5CCCCC5)c(=O)[nH]4)C3)n2)CC1 [Example 143, 1-cyclohexyl-6-(1-(4-((4-isopropylpiperazin-1-yl)methyl)thiazol-2-yl)azetidin-3-yl)-1H-pyrazolo[3,4-d]pyrimidin-4(5H)-one] | 1000 to 1500
CN1CCN(c2ccc3[nH]c(N4CC(c5nc6c(cnn6C(C)(C)C)c(=O)[nH]5)C4)nc3c2)CC1 [Example 144, 1-tert-butyl-6-(1-(5-(4-methylpiperazin-1-yl)-1H-benzo[d]imidazol-2-yl)azetidin-3-yl)-1H-pyrazolo[3,4-d]pyrimidin-4(5H)-one] | 101 to 500
O=c1[nH]c(C2CN(c3ccc(S(=O)(=O)N4CCOCC4)cc3)C2)nc2c1cnn2C1CCCCC1 [Example 145, 1-Cyclohexyl-6-(1-(4-(Morpholinosulfonyl)phenyl)azetidin-3-yl)-1H-pyrazolo[3,4-d]pyrimidin-4(5H)-one] | 1 to 100
Nc1cc(N2CC(c3nc4c(cnn4C4CCCCC4)c(=O)[nH]3)C2)ccc1[N+](=O)[O-] [Example 146, 6-(1-(3-amino-4-nitrophenyl)azetidin-3-yl)-1-cyclohexyl-1H-pyrazolo[3,4-d]pyrimidin-4(5H)-one] | 1 to 100
Cc1cc(N2CC(c3nc4c(cnn4C4CCCCC4)c(=O)[nH]3)C2)ccc1[N+](=O)[O-] [Example 149, 1-cyclohexyl-6-(1-(3-methyl-4-nitrophenyl)azetidin-3-yl)-1H-pyrazolo[3,4-d]pyrimidin-4(5H)-one] | 1 to 100
O=c1[nH]c(C2CN(c3ccc(C(F)(F)F)cc3)C2)nc2c1cnn2C1CCCCC1 [Example 152, 1-cyclohexyl-6-(1-(4-(trifluoromethyl)phenyl)azetidin-3-yl)-1H-pyrazolo[3,4-d]pyrimidin-4(5H)-one] | 101 to 500
O=c1[nH]c(C2CCCN(c3ccc([N+](=O)[O-])cn3)C2)nc2c1cnn2C1CCCCC1 (centres unmarked) [Example 153, 1-cyclohexyl-6-(1-(5-nitropyridin-2-yl)piperidin-3-yl)-1H-pyrazolo[3,4-d]pyrimidin-4(5H)-one] | 1000 to 1500
O=c1[nH]c(C2CCCN(c3ccc(C(F)(F)F)cn3)C2)nc2c1cnn2C1CCCCC1 (centres unmarked) [Example 154, 1-cyclohexyl-6-(1-(5-(trifluoromethyl)pyridin-2-yl)piperidin-3-yl)-1H-pyrazolo[3,4-d]pyrimidin-4(5H)-one] | 1000 to 1500
O=c1[nH]c(C2CN(c3ccc(CN4CCOCC4)cc3)C2)nc2c1cnn2C1CCCCC1 [Example 155, 1-Cyclohexyl-6-[1-(4-morpholin-4-ylmethyl-phenyl)-azetidin-3-yl]-1,5-dihydro-pyrazolo[3,4-d]pyrimidin-4-one] | 1 to 100
O=c1[nH]c(C2CN(c3ccccc3CN3CCOCC3)C2)nc2c1cnn2C1CCCCC1 [Example 156, 1-Cyclohexyl-6-(1-(2-(morpholinomethyl)phenyl)azetidin-3-yl)-1H-pyrazolo[3,4-d]pyrimidin-4(5H)-one] | 101 to 500
CC(C)(C)c1csc(N2CC(c3nc4c(cnn4C4CCCCC4)c(=O)[nH]3)C2)n1 [Example 157, 6-(1-(4-tert-Butylthiazol-2-yl)azetidin-3-yl)-1-cyclohexyl-1H-pyrazolo[3,4-d]pyrimidin-4-(5H)-one] | 101 to 500

Other lines, results leading:

IC50 [nM] | SMILES
101 to 500 | O=c1[nH]c(C2CN(c3nc4ccccc4s3)C2)nc2c1cnn2C1CCCCC1 [Example 129, 6-(1-(benzo[d]thiazol-2-yl)azetidin-3-yl)-1-cyclohexyl-1H-pyrazolo[3,4-d]pyrimidin-4(5H)-one]
101 to 500 | O=c1[nH]c(C2CN(c3nc4ccccc4o3)C2)nc2c1cnn2C1CCCCC1 [Example 130, 6-(1-(benzo[d]oxazol-2-yl)azetidin-3-yl)-1-cyclohexyl-1H-pyrazolo[3,4-d]pyrimidin-4(5H)-one]
501 to 1000 | Cn1c(N2CC(c3nc4c(cnn4C4CCCCC4)c(=O)[nH]3)C2)nc2ccccc21 [Example 131, 1-cyclohexyl-6-(1-(1-methyl-1H-benzo[d]imidazol-2-yl)azetidin-3-yl)-1H-pyrazolo[3,4-d]pyrimidin-4(5H)-one]
1 to 100 | O=c1[nH]c(C2CN(c3nc(-c4ccccc4)co3)C2)nc2c1cnn2C1CCCCC1 [Example 132, 1-cyclohexyl-6-(1-(4-phenyloxazol-2-yl)azetidin-3-yl)-1H-pyrazolo[3,4-d]pyrimidin-4(5H)-one]
101 to 500 | O=c1[nH]c(C2CN(c3nnc(-c4ccccc4)o3)C2)nc2c1cnn2C1CCCCC1 [Example 133, 1-cyclohexyl-6-(1-(5-phenyl-1,3,4-oxadiazol-2-yl)azetidin-3-yl)-1H-pyrazolo[3,4-d]pyrimidin-4(5H)-one]
101 to 500 | O=c1[nH]c(C2CN(c3ncc(-c4ccccc4)o3)C2)nc2c1cnn2C1CCCCC1 [Example 136, 1-cyclohexyl-6-(1-(5-phenyloxazol-2-yl)azetidin-3-yl)-1H-pyrazolo[3,4-d]pyrimidin-4(5H)-one]
501 to 1000 | O=c1[nH]c(C2CN(c3ncc(Br)s3)C2)nc2c1cnn2C1CCCCC1 [Example 140, 6-(1-(5-bromothiazol-2-yl)azetidin-3-yl)-1-cyclohexyl-1H-pyrazolo[3,4-d]pyrimidin-4(5H)-one]
1 to 100 | CC(=O)c1ccc(N2CC(c3nc4c(cnn4C4CCCCC4)c(=O)[nH]3)C2)cc1 [Example 147, 6-(1-(4-acetoylphenyl)azetidin-3-yl)-1-cyclohexyl-1H-pyrazolo[3,4-d]pyrimidin-4(5H)-one]
1 to 100 | N#Cc1ccc(N2CC(c3nc4c(cnn4C4CCCCC4)c(=O)[nH]3)C2)cc1 [Example 148, 4-(3-(1-cyclohexyl-4-oxo-4,5-dihydro-1H-pyrazolo[3,4-d]pyrimidin-6-yl)azetidin-1-yl)benzonitrile]
101 to 500 | N#Cc1ccccc1N1CC(c2nc3c(cnn3C3CCCCC3)c(=O)[nH]2)C1 [Example 150, 2-(3-(1-cyclohexyl-4-oxo-4,5-dihydro-1H-pyrazolo[3,4-d]pyrimidin-6-yl)azetidin-1-yl)benzonitrile]
101 to 500 | CC(=O)c1ccccc1N1CC(c2nc3c(cnn3C3CCCCC3)c(=O)[nH]2)C1 [Example 151, 6-(1-(2-acetoylphenyl)azetidin-3-yl)-1-cyclohexyl-1H-pyrazolo[3,4-d]pyrimidin-4(5H)-one]
1 to 100 | O=c1[nH]c(C2CN(c3nnc(-c4ccccc4)[nH]3)C2)nc2c1cnn2C1CCCCC1 [Example 158, 1-Cyclohexyl-6-(1-(5-phenyl-4H-1,2,4-triazol-3-yl)azetidin-3-yl)-1H-pyrazolo[3,4-d]pyrimidin-4-(5H)-one]
1 to 100 | O=c1[nH]c(C2CN(c3nc(-c4ccccc4)cs3)C2)nc2c1cnn2C1CCCCC1 [Example 159, 1-Cyclohexyl-6-(1-(4-phenylthiazol-2-yl)azetidin-3-yl)-1H-pyrazolo[3,4-d]pyrimidin-4-(5H)-one]
101 to 500 | O=c1[nH]c(C2CN(c3ncc(-c4ccccc4)s3)C2)nc2c1cnn2C1CCCCC1 [Example 160, 1-Cyclohexyl-6-(1-(5-phenylthiazol-2-yl)azetidin-3-yl)-1H-pyrazolo[3,4-d]pyrimidin-4-(5H)-one]
